Here are results for 5 compounds from patent publication US20230321008A1, “INHIBITORS OF ACID SPHINGOMYELINASE FOR PREVENTING AND TREATING THE COVID-19 DISEASE” (priority 2020, published 2023).

Entries after “also recorded” stand apart in the source; their conditions may differ.

For experiment [1], the target named is T1, acid sphingomyelinase (ASM) (Homo sapiens, UniProt P17405).
T1 sequence (P17405 47-631): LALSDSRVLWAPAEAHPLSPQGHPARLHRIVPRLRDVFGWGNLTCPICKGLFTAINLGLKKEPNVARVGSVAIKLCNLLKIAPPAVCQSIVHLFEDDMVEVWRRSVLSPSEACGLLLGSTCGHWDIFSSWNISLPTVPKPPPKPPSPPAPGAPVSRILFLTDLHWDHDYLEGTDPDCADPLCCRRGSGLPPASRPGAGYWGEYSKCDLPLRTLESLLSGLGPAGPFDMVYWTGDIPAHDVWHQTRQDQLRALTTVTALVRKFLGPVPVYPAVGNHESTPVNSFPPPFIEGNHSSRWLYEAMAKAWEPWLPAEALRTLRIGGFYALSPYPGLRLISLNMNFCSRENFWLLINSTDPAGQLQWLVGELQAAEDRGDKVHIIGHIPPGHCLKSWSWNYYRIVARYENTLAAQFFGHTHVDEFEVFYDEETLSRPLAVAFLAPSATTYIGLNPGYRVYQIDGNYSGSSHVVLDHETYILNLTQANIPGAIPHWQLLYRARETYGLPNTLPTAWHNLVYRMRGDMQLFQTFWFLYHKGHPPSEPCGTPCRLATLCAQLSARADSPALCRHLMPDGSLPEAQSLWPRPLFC
Particulars: cited from earlier work.

For experiment [2], the system named is ceramide-enriched membrane domains. Particulars: in vitro; cited from earlier work.
The test system of experiment [3] is SARS-CoV-2. The following applies: cited from earlier work.
For experiment [4], the system named is SARS-CoV-2. Particulars: oral use in healthy volunteers; cited from earlier work.
Experiment [5] concerns severe COVID-19. Description: Example 1: multicenter observational retrospective cohort study, FIASMA psychotropic medication use at baseline and intubation or death in patients with mental disorder. Type of experiment: in vivo, human. Particulars: patients with mental disorder hospitalized for severe COVID-19; vs not exposed. The text has this: We conducted a multicenter observational retrospective cohort study at 36 AP-HP hospitals from the beginning of the epidemic in France, i.e. January 24th, until May 1st. We included all adults aged 18 years or over with a mental disorder who have been hospitalized in these medical centers for severe COVID-19. Mental disorder was defined as having at least one current International Statistical Classification of Diseases and Related Health Problems (ICD-10) diagnosis of mental disorder (F01-F99) during the visit or an ongoing prescription of any antidepressant, antipsychotic, or mood stabilizer (i.e. lithium or antiepileptic medications with mood stabilizing effects) for a psychiatric disorder at hospital admission. COVID-19 was ascertained by a positive reverse-transcriptase-polymerase-chain-reaction (RT-PCR) test from analysis of nasopharyngeal or oropharyngeal swab specimens. […]
We calculated frequencies of baseline characteristics described above in patients receiving or not receiving a FIASMA psychotropic medication and compared them using standardized mean differences (SMD). […]

Experiment [6] deals with severe COVID-19. Description: Example 2: multicenter observational retrospective cohort study, FIASMA medication use at baseline and intubation or death in patients hospitalized for severe COVID-19. In kind it is in vivo, human. The following applies: vs no FIASMA medication. An excerpt: We included all adults aged 18 years or over who have been hospitalized in these medical centers for severe COVID-19. COVID-19 was ascertained by a positive reverse-transcriptase-polymerase-chain-reaction (RT-PCR) test from analysis of nasopharyngeal or oropharyngeal swab specimens. Severe COVID-19 at admission was defined as having at least one of the following criteria: respiratory rate > 24 breaths/min or < 12 breaths/min, resting peripheral capillary oxygen saturation in ambient air < 90%, temperature > 40° C., systolic blood pressure < 100 mm Hg or high lactate levels. AP-HP clinical Data Warehouse initiatives ensure patient information and informed consent regarding the different approved studies through a transparency portal in accordance with European Regulation on data protection and authorization n°1980120 from National Commission for Information Technology and Civil Liberties (CNIL).
We used data from the AP-HP Health Data Warehouse (‘Entrepôt de Données de Santé (EDS)’). This warehouse contains all available clinical data on all inpatient visits for COVID-19 to any Greater Paris University hospital. The data included patient demographic characteristics, vital signs, laboratory test and RT-PCR test results, medication administration data, medication lists during current and past hospitalizations in AP-HP hospitals, current diagnoses, discharge disposition, and death certificates.
We obtained the following data for each patient at the time of the hospitalization: sex; age, which was categorized into 4 classes based on the OpenSAFELY study results (i.e. 18-50, 51-70, 71-80, 81+); hospital, which was categorized into 4 classes following the administrative clustering of AP-HP hospitals in Paris and its suburbs based on their geographical location (i.e., AP-HP Centre - Paris University, Henri Mondor University Hospitals and at home hospitalization; AP-HP Nord and Hôpitaux Universitaires Paris Seine-Saint-Denis; AP-HP Paris Saclay University; and AP-HP Sorbonne University); obesity, which was defined as having a body mass index higher than 30 kg/m^2 or an International Statistical Classification of Diseases and Related Health Problems (ICD-10) diagnosis code for obesity (E66.0, E66.1, E66.2, E66.8, E66.9); self-reported current smoking status; and any medication prescribed according to compassionate use or as part of a clinical trial (e.g. hydroxychloroquine, azithromycin, remdesivir, tocilizumab, sarilumab, or dexamethasone). To take into account possible confounding by indication bias for FIASMA medication, we recorded whether patients had any current diagnosis, based on ICD-10 diagnosis codes, for neoplasms and diseases of the blood (C00-D89); mental disorders (F01-F99); diseases of the nervous system (G00-G99); cardiovascular disorders (I00-I99); respiratory disorders (J00-J99); digestive disorders (K00-K95); dermatological disorders (L00-L99); diseases of the musculoskeletal system (M00-M99); diseases of the genitourinary system (N00-N99); endocrine disorders (E00-E89); and eye-ear-nose-throat disorders (H00-H95).
All medical notes and prescriptions are computerized in Greater Paris University hospitals. Medications including their dosage, frequency, date, and mode of administration were identified from medication administration data or scanned handwritten medical prescriptions, through two deep learning models based on BERT contextual embeddings, one for the medications and another for their mode of administration. The model was trained on the APmed corpus, a previously annotated dataset for this task. Extracted medications names were then normalized to the Anatomical Therapeutic Chemical (ATC) terminology using approximate string matching.
FIASMA medication use was defined as receiving at least one FIASMA medication at study baseline, i.e. within the first 24 hours of hospital admission, and before the end of the index hospitalization, intubation or death.

Experiment [7] has as its system SARS-CoV-2. Particulars: in vitro; cited from earlier work.
Experiment [8] concerns SARS-CoV-2. Particulars: cited from earlier work. This is another data set of the same source.
Experiment [9] has as its system COVID-19. In words: Example 3: multicenter observational retrospective study, hydroxyzine use and death in patients admitted to hospital with COVID-19. Type of experiment: in vivo, human.
The target in experiment [10] is serotonin 5-HT2A-receptor (Homo sapiens, UniProt P28223). The following applies: cited from earlier work.
The next experiment concerns the target dopamine D2 receptor (Homo sapiens, UniProt P14416). The following applies: cited from earlier work.
A further experiment concerns α1-adrenergic receptor. Particulars: cited from earlier work.
The test system of experiment [11] is COVID-19. The following applies: randomized double-blind controlled study; cited from earlier work.

Sequence of serotonin 5-HT2A-receptor (P28223 whole entry): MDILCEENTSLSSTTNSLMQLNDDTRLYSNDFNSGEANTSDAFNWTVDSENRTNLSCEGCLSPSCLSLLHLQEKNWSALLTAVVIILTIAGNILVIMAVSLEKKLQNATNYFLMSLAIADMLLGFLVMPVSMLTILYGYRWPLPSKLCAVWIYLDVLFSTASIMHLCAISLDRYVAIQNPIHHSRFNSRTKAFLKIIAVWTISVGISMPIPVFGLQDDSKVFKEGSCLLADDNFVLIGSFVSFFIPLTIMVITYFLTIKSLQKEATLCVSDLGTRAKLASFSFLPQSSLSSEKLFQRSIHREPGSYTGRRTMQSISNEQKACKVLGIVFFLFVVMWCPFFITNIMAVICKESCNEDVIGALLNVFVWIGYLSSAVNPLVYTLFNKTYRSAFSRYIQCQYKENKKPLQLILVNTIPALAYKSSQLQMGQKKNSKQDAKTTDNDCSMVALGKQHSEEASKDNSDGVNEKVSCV
Sequence of dopamine D2 receptor (P14416 whole entry, species assumed): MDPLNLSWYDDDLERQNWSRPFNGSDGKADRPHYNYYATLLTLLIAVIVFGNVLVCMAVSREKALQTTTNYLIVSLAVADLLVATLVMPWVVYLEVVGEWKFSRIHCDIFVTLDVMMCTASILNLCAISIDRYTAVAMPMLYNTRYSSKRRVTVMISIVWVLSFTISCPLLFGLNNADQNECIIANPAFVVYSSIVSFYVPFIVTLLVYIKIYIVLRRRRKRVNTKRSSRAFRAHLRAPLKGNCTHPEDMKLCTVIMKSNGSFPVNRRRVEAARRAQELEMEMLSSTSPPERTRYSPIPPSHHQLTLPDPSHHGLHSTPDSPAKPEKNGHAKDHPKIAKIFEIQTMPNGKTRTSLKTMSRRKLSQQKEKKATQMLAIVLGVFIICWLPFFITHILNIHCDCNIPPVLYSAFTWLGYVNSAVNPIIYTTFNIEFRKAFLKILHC

For the compound `CN(C)CCC=C1c2ccccc2CCc2ccccc21` [Amitriptyline, amitriptyline], the “In vitro inhibition of acid sphingomyelinase (in words)” value (shortened to “In vitro inhibition”) in experiment [1] was “inhibited ASM; also recorded: in vitro inhibit acid sphingomyelinase with varying degrees”. In [2], the “Formation of ceramide-enriched membrane domains (in words)” value (“Formation” below) is “inhibited ASM and the formation of ceramide-enriched membrane domains”. In addition, the “Infection of Vero cells with SARS-CoV-2 (in words)” value (shortened to “Infection of Vero cells”) in the experiment on SARS-CoV-2 [3] is listed as “prevented Vero cells from being infected with SARS-CoV-2”. Moreover, in the experiment with SARS-CoV-2 [4], the “Infection of freshly isolated nasal epithelial cells with SARS-CoV-2 (in words)” value is “efficiently blocked infection of freshly isolated nasal epithelial cells with SARS-CoV-2”.

In the case of `CN(C)CCC[C@@]1(c2ccc(F)cc2)OCc2cc(C#N)ccc21` [Escitalopram, escitalopram], the “Association of use at baseline with risk of intubation or death (in words)” value in the experiment with severe COVID-19 [5] was “reached statistical significance across all main and sensitivity analyses”; in the experiment with severe COVID-19 [6] it was “reached statistical significance across all main and sensitivity analyses”. The “In vitro inhibition” value in experiment [1] was “inhibited ASM; also recorded: in vitro inhibit acid sphingomyelinase with varying degrees”. Besides, the “Formation” value in experiment [2] is “inhibited ASM and the formation of ceramide-enriched membrane domains”. Also, the “Infection of Vero cells” value with SARS-CoV-2 [3] is listed as “prevented Vero cells from being infected with SARS-CoV-2”. Also, in the experiment on SARS-CoV-2 [7], the “Inhibition of viral replication (in words)” value is recorded as “inhibition of viral replication was not observed”.

In the case of `CNCCC(Oc1ccc(C(F)(F)F)cc1)c1ccccc1` (stereo not drawn) [Fluoxetine, fluoxetine], the “In vitro inhibition” value in experiment [1] is “inhibited ASM; also recorded: in vitro inhibit acid sphingomyelinase with varying degrees”. Moreover, in [2], the “Formation” value is “inhibited ASM and the formation of ceramide-enriched membrane domains”. The “Infection of Vero cells” value with SARS-CoV-2 [3] is listed as “prevented Vero cells from being infected with SARS-CoV-2”. Besides, the “Infection of cultured epithelial cells with SARS-CoV-2 (in words)” value in the experiment with SARS-CoV-2 [8] is given as “inhibition of the infection of cultured epithelial cells with SARS-CoV-2”. Further, the “Inhibition of viral replication (in words)” value with SARS-CoV-2 [7] is “inhibition of viral replication”.

As to `OCCOCCN1CCN(C(c2ccccc2)c2ccc(Cl)cc2)CC1` (stereo not drawn) [Hydroxyzine, 2-[2-[4-[(4-chlorophenyl)-phenylmethyl]piperazin-1-yl]ethoxy]ethanol], the “Association of use at baseline with risk of intubation or death (in words)” value is “reached statistical significance across all main and sensitivity analyses” with severe COVID-19 [5]; “reached statistical significance across all main and sensitivity analyses” in the experiment with severe COVID-19 [6]. Also, the “Association of cumulative dose with risk of death (in words)” value in the experiment with COVID-19 [9] (higher rather than lower cumulative doses) was “significantly associated with lower risk of death; also recorded: significantly stronger at higher rather than lower cumulative doses”. Further, the “Association of use with risk of death (in words)” value with COVID-19 [9] (hospitalized adult patients with COVID-19) was “significantly and substantially associated with reduced risk of death; also recorded: significantly associated with reduced mortality in patients hospitalized for COVID-19; also recorded: significantly and substantially associated with lower risk of death”. Further, the “Antagonist action at the serotonin 5-HT2A-receptor (in words)” value in experiment [10] is “weakly acts as an antagonist”. Moreover, the “Antagonist action at the dopamine D2 receptor (in words)” value on dopamine D2 receptor is listed as “weakly acts as an antagonist”. The “Antagonist action at the α1-adrenergic receptor (in words)” value in the experiment on α1-adrenergic receptor was “weakly acts as an antagonist”.

Consider `COCCCC/C(=N\OCCN)c1ccc(C(F)(F)F)cc1` [fluvoxamine], for which the “In vitro inhibition” value in experiment [1] is reported as “in vitro inhibit acid sphingomyelinase with varying degrees”. The “Effect on COVID-19 disease progression (in words)” value with COVID-19 [11] is “significant protective effects on COVID-19 disease progression”.
